Source: PubChem BioAssay AID1918945 (Molecular Pharmacology Branch, DTP, NCI, 2023)

Tested on: 883617-216-R-J1-PDC complex spheroid viability
Test: Anticancer human tumor 883617-216-R-J1-PDC patient-derived bladder carcinoma cell line growth inhibition
Settings: for IC50: curve of first compound; for viability, T/C: stronger effect = lower value
In short: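 Drug combinations with the LSD1 inhibitor iadademstat tested on tumor cells co-cultured as spheroids with endothelial cells and mesenchymal stem cells. Concentrations descended in half-log increments from clinical Cmax or 10 microM.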

[1] = second compound 0.1 µM, first compound 0.0316 µM
[2] = second compound 0.1 µM, first compound 0.1 µM
[3] = second compound 0.1 µM, first compound 0.316 µM
[4] = second compound 0.1 µM, first compound 1 µM
[5] = second compound 0.1 µM, first compound 3.16 µM
[6] = second compound 0.1 µM, first compound 10 µM
[7] = second compound 0.316 µM, first compound 0.0316 µM
[8] = second compound 0.316 µM, first compound 0.1 µM
[9] = second compound 0.316 µM, first compound 0.316 µM
[10] = second compound 0.316 µM, first compound 1 µM
[11] = second compound 0.316 µM, first compound 3.16 µM
[12] = second compound 0.316 µM, first compound 10 µM
[13] = second compound 1 µM, first compound 0.0316 µM
[14] = second compound 1 µM, first compound 0.1 µM
[15] = second compound 1 µM, first compound 0.316 µM
[16] = second compound 1 µM, first compound 1 µM
[17] = second compound 1 µM, first compound 3.16 µM
[18] = second compound 1 µM, first compound 10 µM
[19] = second compound 3.16 µM, first compound 0.0316 µM
[20] = second compound 3.16 µM, first compound 0.1 µM
[21] = second compound 3.16 µM, first compound 0.316 µM
[22] = second compound 3.16 µM, first compound 1 µM
[23] = second compound 3.16 µM, first compound 3.16 µM
[24] = second compound 3.16 µM, first compound 10 µM
[25] = second compound 10 µM, first compound 0.0316 µM
[26] = second compound 10 µM, first compound 0.1 µM
[27] = second compound 10 µM, first compound 0.316 µM
[28] = second compound 10 µM, first compound 1 µM
[29] = second compound 10 µM, first compound 3.16 µM
[30] = second compound 10 µM, first compound 10 µM
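Also: exposure lasted seven days after three days of spheroid growth.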
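For viability, T/C in this document: 100% = DMSO vehicle control luminescence.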

Row | Structure (SMILES) | IC50 (second compound 0.1 µM) [nM] | IC50 (second compound 0.316 µM) [nM] | IC50 (second compound 1 µM) [nM] | IC50 (second compound 3.16 µM) [nM] | IC50 (second compound 10 µM) [nM] | viability, T/C [1] [%] | viability, T/C [2] [%] | viability, T/C [3] [%] | viability, T/C [4] [%] | viability, T/C [7] [%] | viability, T/C [8] [%] | viability, T/C [9] [%] | viability, T/C [10] [%] | viability, T/C [13] [%] | viability, T/C [14] [%] | viability, T/C [15] [%] | viability, T/C [16] [%] | viability, T/C [19] [%] | viability, T/C [20] [%] | viability, T/C [21] [%] | other results
1 | CC(C)c1c(-c2ccccc2)nc2c(C#N)c[nH]n2c1=O + NC1CC1c1ccc(-c2cccc(O)c2)cc1 | > 10000 | > 10000 | > 10000 | > 10000 | > 10000 | 110 | 118 | 119 | 109 | 114 | 126 | 122 | 122 | 132 | 119 | 116 | 117 | 124 | 117 | 105 | viability, T/C [5]: 113%; viability, T/C [6]: 96%; viability, T/C [11]: 94.8%; viability, T/C [12]: 108%; viability, T/C [17]: 102%; viability, T/C [18]: 109%; viability, T/C [22]: 104%; viability, T/C [23]: 100%; viability, T/C [24]: 94.4%; viability, T/C [25]: 100%; viability, T/C [26]: 93.2%; viability, T/C [27]: 79.8%; viability, T/C [28]: 89.9%; viability, T/C [29]: 96.2%; viability, T/C [30]: 85.3%
2 | CC1COCCN1c1cc(-c2ccnn2C)c2ccnc(-c3ccn[nH]3)c2n1 (stereo not given) + NC1CC1c1ccc(-c2cccc(O)c2)cc1 | 7.65 | 8.14 | 8.58 | 4.73 | 3.73 | 37.2 | 29.1 | 24.6 | 18.8 | 35.3 | 32.7 | 26 | 21 | 32.8 | 29.1 | 23.1 | 20.4 | 30.3 | 26.6 | 23.2 | viability, T/C (second compound 0.1 µM, first compound 0.00316 µM): 56.5%; viability, T/C (second compound 0.1 µM, first compound 0.01 µM): 49.9%; viability, T/C (second compound 0.316 µM, first compound 0.00316 µM): 63.4%; viability, T/C (second compound 0.316 µM, first compound 0.01 µM): 45.9%; viability, T/C (second compound 1 µM, first compound 0.00316 µM): 60.1%; viability, T/C (second compound 1 µM, first compound 0.01 µM): 49.8%; viability, T/C (second compound 3.16 µM, first compound 0.00316 µM): 56.6%; viability, T/C (second compound 3.16 µM, first compound 0.01 µM): 37.8%; viability, T/C [22]: 19.4%; viability, T/C (second compound 10 µM, first compound 0.00316 µM): 51.2%; viability, T/C (second compound 10 µM, first compound 0.01 µM): 41.9%; viability, T/C [25]: 27.6%; viability, T/C [26]: 25%; viability, T/C [27]: 22.6%; viability, T/C [28]: 19.7%
3 | COc1ccc([C@@H](O)c2cc(-c3ncnc4cc(N5CCOCC5)ccc34)c(F)cc2Cl)nn1 + NC1CC1c1ccc(-c2cccc(O)c2)cc1 | 877 | 1030 | 902 | 712 | 304 | 111 | 102 | 71.5 | 46.1 | 109 | 93.3 | 74.4 | 48.8 | 113 | 98.3 | 75 | 43.8 | 116 | 93.8 | 58.2 | viability, T/C [5]: 30.6%; viability, T/C [6]: 15.1%; viability, T/C [11]: 31.5%; viability, T/C [12]: 15.3%; viability, T/C [17]: 32.7%; viability, T/C [18]: 15.2%; viability, T/C [22]: 47.2%; viability, T/C [23]: 27%; viability, T/C [24]: 14.3%; viability, T/C [25]: 88%; viability, T/C [26]: 71.9%; viability, T/C [27]: 42.1%; viability, T/C [28]: 39%; viability, T/C [29]: 21.8%; viability, T/C [30]: 12.4%
